Test results: PMC11868366 (Communications Biology, 2025)

Target: S6MTHFR (Sphingobium sp. SYK-6, UniProt G2IQS8)
Assay: X-ray crystal structure of CH3-THF complex, […] Å
Assay type: binding
Conditions: FAD bound as purified; pH 4.5

Chain of S6MTHFR (G2IQS8 2-288): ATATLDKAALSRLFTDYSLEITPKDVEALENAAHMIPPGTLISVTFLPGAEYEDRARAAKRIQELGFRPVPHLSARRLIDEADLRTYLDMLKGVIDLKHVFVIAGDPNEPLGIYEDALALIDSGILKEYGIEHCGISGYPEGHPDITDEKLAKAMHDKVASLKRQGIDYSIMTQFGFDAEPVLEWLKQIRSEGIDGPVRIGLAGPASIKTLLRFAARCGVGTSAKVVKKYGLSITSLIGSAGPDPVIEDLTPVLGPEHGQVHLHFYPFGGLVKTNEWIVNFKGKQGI

## Cc1cc2nc3c(=O)[nH]c(=O)nc-3n(C[C@H](O)[C@H](O)[C@H](O)COP(=O)(O)OP(=O)(O)OC[C@H]3O[C@@H](n4cnc5c(N)ncnc54)[C@H](O)[C@@H]3O)c2cc1C [FAD]
  X-ray crystal structure of CH3-THF complex, 1.85 Å: FAD and the experimentally observed part of the CH3-THF molecule are shown by stick models
